Laboratory results: patent publication US10711007B2, “Selective inhibitors of protein arginine methyltransferase 5 (PRMT5)” (Prelude Therapeutics, Incorporated, priority 2018, dated 2020)

Assays:
PRMT5/MEP50 complex = PRMT5/MEP50 complex (Homo sapiens (Human), UniProt O14744); assay: Biochemical assay: PRMT5/MEP50 methylation of histone H4 based AcH4-23, SPA readout; settings: PRMT5/MEP50 2.5 nM, 300 nM AcH4-23, 1 μM 3H-SAM
Description: Biochemical Assay Protocol
Compounds were solubilized and 3-fold diluted in 100% DMSO. […] Standard reactions were performed in a total volume of 30 μl in assay buffer, with 300 nM histone H4 based AcH4-23 (Anaspec: AS-65002) as substrate. To this was added the PRMT5/MEP50 complex diluted to provide a final assay concentration of 2.5 nM and the compounds were allowed to preincubate for 20 minutes at 37° C. The reaction was initiated by adding S-[3H-methyl]-adenosyl-L-methionine (PerkinElmer: NET155001MC) to final concentration of 1 μM. Following a 30 minutes incubation at 37° C., the reaction was stopped by adding 25 μL of 8M Guanidine HCl. Prepare streptavidin YSI SPA beads (Perkinelmer: RPNQ0012) at 0.3 mg/mL in assay buffer. To each reaction, add 150 μL of SPA beads suspension, and incubated while shaking at room temperature for 30 minutes. The plate was centrifuged at 100×g for 30 second before reading in a scintillation counter. IC50 values were determined by fitting the data to the standard 4 parameters with Hill Slope using GraphPad Prism software.

[1] = tested on: sDMA marks (SmD3me2s) in Granta-519 cells; assay: Western blotting for symmetric di-methyl arginine (sDMA) marks in Granta-519 cells; format: cell-based; settings: Homo sapiens, 72 h; Granta-519 cell line (value in brackets), 3 days
Description: (§1) Cell Treatment and Western Blotting for Detecting Symmetric Di-Methyl Arginine (sDMA) Marks
(§2) Compound Titration and Cell Culture:
(§3) Compounds were dissolved in DMSO to make 10 mM stock and 3-fold series dilutions were further conducted to make working stocks top at 1 mM. Granta-519 cells were maintained in PRMI 1640 (Corning Cellgro, Catalog #: 10-040-CV) supplemented with 10% v/v FBS (GE Healthcare, Catalog #: SH30910.03) and U-87 MG cells were maintained in DMEM (Corning Cellgro, Catalog #: 10-013-CV) with 10% FBS and 2 mM Glutamin (Corning Cellgro, Catalog #25005CV).
To determine enzyme inhibition IC50 values in Granta-519 and U-87 MG cells using Western Blot analysis. One day before experiment, Granta-519 cells were passaged to a density of 0.5×10^6 cells/ml. U-87 MG cells were trypsinized and 4×10^5 cells were seeded into 6-well plates and allow to grow overnight. […]
Cells were harvested 3 days later, resuspended in 15 uL PBS, lysed in 4% SDS, and homogenized by passing through homogenizer column (Omega Biotek, Catalog #: HCR003). Total protein concentrations were determined by BCA assay (ThermoFisher Scientific, Catalog #: 23225). […] SmD3me2s bands were quantified by ImageJ. […] IC50 values were calculated using Graphpad Prism ([Inhibitor] vs. normalized response-Variable slope).

[2] = tested on: sDMA marks (SmD3me2s) in U-87 MG cells; assay: Western blotting for symmetric di-methyl arginine (sDMA) marks in U-87 MG cells; format: cell-based; settings: Homo sapiens, 72 h; U-87 MG cell line, 3 days
Description: as §1, §2, §3
To determine enzyme inhibition IC50 values in Granta-519 and U-87 MG cells using Western Blot analysis. One day before experiment, Granta-519 cells were passaged to a density of 0.5×10^6 cells/ml. U-87 MG cells were trypsinized and 4×10^5 cells were seeded into 6-well plates and allow to grow overnight. The next day, Granta-519 cells were spun down at 1,500 rpm for 4 min, resuspend in fresh medium at 0.5×10^6 cells/ml and 3 mL of culture (1.5×10^6 cells) were seeded into 6 well plate. Eight-point, 3-fold serial dilutions of compound working stocks were added to cells (3 ul, 1:1,000 dilution, DMSO concentration was 0.1%; final top concentration at 1 uM) and incubated for 3 days. Cells incubated with DMSO was used as a vehicle control.
Cells were harvested 3 days later, resuspended in 15 uL PBS, lysed in 4% SDS, and homogenized by passing through homogenizer column (Omega Biotek, Catalog #: HCR003). Total protein concentrations were determined by BCA assay (ThermoFisher Scientific, Catalog #: 23225). Lysates were mixed with 5× Laemmli buffer and boiled for 5 min. Forty ug of total protein was separated on SDS-PAGE gels (Bio-Rad, catalog #: 4568083, 4568043), transferred to PVDF membrane, blocked with 5% dry milk (Bio-Rad, Catalog #: 1706404) in TBS with 0.1% v/v Tween 20 (TBST) for 1 hour at room temperature (RT), and incubated with primary antibodies (sDMA: Cell signaling, Catalog #: 13222, 1:3,000; β-Actin: sigma, Catalog #: 1:5,000) in 5% dry milk in TBST at 4° C. overnight. The next day, membranes were washed with TBST, 5×5 min, and incubated with HRP conjugated seconded antibody (GE Healthcare; Catalog #: NA934-1ML, NA931-1ML; 1:5,000) for 2 hours at RT, followed by 5×5 min washes with TBST, and incubation with ECL substrates (Bio-Rad, Catalog #: 1705061, 1705062). Chemiluminescent signal was captured with Fluochem HD2 imager (Proteinsimple). SmD3me2s bands were quantified by ImageJ. Signals were normalized to β-Actin and DMSO control. IC50 values were calculated using Graphpad Prism ([Inhibitor] vs. normalized response-Variable slope).

U-87 MG cells = assay: Cell proliferation assay (CCK-8, day 10) in U-87 MG cells; format: cell-based; settings: Homo sapiens, 240 h, U-87 MG cell line, read-out: Prolif. IC50
Description: Cell Proliferation Assay to Determine IC50 in Granta-519 and U-87 MG Cells
One day before experiment, Granta-519 cells were passaged to a density of 0.5×10^6 cells/ml. U-87 MG cells were trypsinized and 2,000 cells were seeded into 96-well plates and allow to grow overnight. On the day of experiment (day 0), Granta-519 Cells were spun down at 1,500 rpm for 4 min, resuspended in fresh medium to 0.5×10^6 cells/ml and 190 ul of cells were added to 96 well plates. For U-87 MG cells, old medium was removed and replaced with 190 uL fresh medium. Compound working stocks were first diluted at 1:50 with fresh medium in 96 well plate and 10 μL of diluted drugs were added to 96 well plates containing cells and incubated for 3 days. DMSO was used a vehicle control.
One day 3, 50 uL of Granta-519 cells were transferred to a new 96-well plate and 140 uL fresh medium was added. For U-87 MG cells, old medium was removed and replaced with 190 uL fresh medium. Compound working stocks were freshly diluted at 1:50 with medium and 10 μL of diluted drugs were added to cells and grow for 3additional days. The same process was repeated on day 6. Cells were allowed to grow for additional 4 days.
On day 10, 100 uL Granta-519 cells were transferred to a new 96 well plate and 10 μL of Cell Counting Kit-8 (CCK-8, Jojindo, CK04-13) solution was added. For U-87 MG cells, old medium was removed and replaced with 100 uL fresh medium and 10 uL CCK-8 solution was added. Plates were incubated in CO2 incubator for 2 hours (Granta-519 cells) or 30 min (U-87 MG cells) and OD450 values were measured with a microplate reader (iMark microplate reader, Bio-Rad). Percentage of viable cells, relative to DMSO vehicle control, were calculated and plotted in Graphpad Prism ([Inhibitor] vs. normalized response-Variable slope) to determine proliferation IC50 values on day 10.

PRMT5/MEP50 complex, sequence (O14744 whole entry): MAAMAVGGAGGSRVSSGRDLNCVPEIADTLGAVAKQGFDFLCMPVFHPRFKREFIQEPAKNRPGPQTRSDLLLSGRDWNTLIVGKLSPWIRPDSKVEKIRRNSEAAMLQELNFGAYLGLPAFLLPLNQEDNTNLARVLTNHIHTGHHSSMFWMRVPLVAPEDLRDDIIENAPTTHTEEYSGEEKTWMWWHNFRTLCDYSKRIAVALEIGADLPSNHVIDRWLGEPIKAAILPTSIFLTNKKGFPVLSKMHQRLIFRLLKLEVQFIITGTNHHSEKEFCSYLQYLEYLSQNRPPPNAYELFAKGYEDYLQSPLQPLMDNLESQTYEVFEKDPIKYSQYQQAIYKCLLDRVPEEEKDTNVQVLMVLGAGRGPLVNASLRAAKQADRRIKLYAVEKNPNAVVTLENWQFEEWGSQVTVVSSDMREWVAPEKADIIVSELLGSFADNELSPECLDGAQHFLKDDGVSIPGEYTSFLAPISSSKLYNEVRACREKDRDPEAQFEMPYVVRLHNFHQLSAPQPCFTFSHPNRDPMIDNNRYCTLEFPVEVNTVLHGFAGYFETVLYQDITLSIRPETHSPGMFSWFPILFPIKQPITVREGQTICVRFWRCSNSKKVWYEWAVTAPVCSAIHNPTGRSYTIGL
PRMT5/MEP50 complex, sequence (Q9BQA1 whole entry partner): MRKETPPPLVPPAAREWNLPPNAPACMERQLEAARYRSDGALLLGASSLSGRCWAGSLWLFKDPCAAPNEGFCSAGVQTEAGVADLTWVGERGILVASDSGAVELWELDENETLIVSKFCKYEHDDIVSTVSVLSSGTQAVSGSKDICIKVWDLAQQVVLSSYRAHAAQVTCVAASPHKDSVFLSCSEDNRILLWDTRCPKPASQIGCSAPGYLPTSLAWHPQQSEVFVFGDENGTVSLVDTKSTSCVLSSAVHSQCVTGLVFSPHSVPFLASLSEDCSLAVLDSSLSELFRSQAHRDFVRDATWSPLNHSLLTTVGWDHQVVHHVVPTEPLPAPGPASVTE

Row | IC50 (PRMT5/MEP50 complex) [nM] | IC50 [2] [nM] | IC50 (U-87 MG cells) [nM] | SMILES | IC50 [1] [nM]
1 | 15.7 | 84.4 | 179 | Cc1ncnc2c1ccn2[C@@H]1O[C@H]([C@@H]2OCCc3cc(Cl)sc32)[C@@H](O)[C@H]1O [Example 89, (2S,3S,4R,5R)-2-((S)-2-chloro-4,7-dihydro-5H-thieno[2,3-c]pyran-7-yl)-5-(4-methyl-7H-pyrrolo[2,3-d]pyrimidin-7-yl)tetrahydrofuran-3,4-diol] | –
2 | 1.2 | 2.58 | 9.1 | Nc1ncnc2c1ccn2[C@@H]1O[C@H]([C@@H]2OCCc3cc(Cl)ccc32)[C@@H](O)[C@H]1O [Example 68, (2R,3R,4S,5S)-2-(4-amino-7H-pyrrolo[2,3-d]pyrimidin-7-yl)-5-((R)-6-chloroisochroman-1-yl)tetrahydrofuran-3,4-diol] | –
3 | 31 | 563 | > 1000 | Nc1ncnc2c1ccn2[C@@H]1C[C@H]([C@@H]2OCc3cc(Cl)ccc32)[C@@H](O)[C@H]1O [Example 2B, (1R,2S,3R,5S)-3-(4-amino-7H-pyrrolo[2,3-d]pyrimidin-7-yl)-5-((S)-5-chloro-1,3-dihydroisobenzofuran-1-yl)cyclopentane-1,2-diol] | –
4 | 303 | 382 | 458 | Cc1ncnc2c1ccn2[C@@H]1O[C@H]([C@@H]2OCCc3ccc(Cl)cc32)[C@@H](O)[C@H]1O [Example 70, (2S,3S,4R,5R)-2-((R)-7-chloroisochroman-1-yl)-5-(4-methyl-7H-pyrrolo[2,3-d]pyrimidin-7-yl)tetrahydrofuran-3,4-diol] | –
5 | 11.7 | 4580 | 10000 | Cc1ncnc2c1ccn2[C@@H]1O[C@H]([C@@H]2OCOCc3cc(Cl)ccc32)[C@@H](O)[C@H]1O [Example 55, (2S,3S,4R,5R)-2-((R)-7-chloro-1,5-dihydrobenzo[e][1,3]dioxepin-1-yl)-5-(4-methyl-7H-pyrrolo[2,3-d]pyrimidin-7-yl)tetrahydrofuran-3,4-diol] | –
6 | 11.9 | 579 | 662 | Cc1ncnc2c1ccn2[C@@H]1O[C@H]([C@@H]2NCCc3cc(Cl)ccc32)[C@@H](O)[C@H]1O [Example 98, (2R,3S,4R,5R)-2-[(1R)-6-chloro-1,2,3,4-tetrahydroisoquinolin-1-yl]-5-(4-methylpyrrolo[2,3-d]pyrimidin-7-yl)tetrahydrofuran-3,4-diol] | –
7 | 3.8 | 120 | 142 | Nc1ncnc2c1ccn2[C@@H]1O[C@H]([C@@H]2OCc3cc(Cl)ccc32)[C@@H](O)[C@H]1O [Example 1A, (2R,3R,4S,5S)-2-(4-amino-7H-pyrrolo[2,3-d]pyrimidin-7-yl)-5-((R)-5-chloro-1,3-dihydroisobenzofuran-1-yl)tetrahydrofuran-3,4-diol] | 27
8 | 13.2 | 199 | 377 | Cc1ncnc2c1ccn2[C@@H]1O[C@H]([C@@H]2OCCc3c2ccc(Cl)c3F)[C@@H](O)[C@H]1O [Example 83, (2S,3S,4R,5R)-2-((R)-6-chloro-5-fluoroisochroman-1-yl)-5-(4-methyl-7H-pyrrolo[2,3-d]pyrimidin-7-yl)tetrahydrofuran-3,4-diol] | –
9 | 6.2 | 29.7 | 73 | Nc1ncnc2c1ccn2[C@@H]1O[C@H]([C@@H]2OCCc3ccc(Cl)cc32)[C@@H](O)[C@H]1O [Example 71, (2R,3R,4S,5S)-2-(4-amino-7H-pyrrolo[2,3-d]pyrimidin-7-yl)-5-((R)-7-chloroisochroman-1-yl)tetrahydrofuran-3,4-diol] | –

Row | SMILES | IC50 (PRMT5/MEP50 complex) [nM] | IC50 [2] [nM] | IC50 (U-87 MG cells) [nM] | IC50 [1] [nM]
10 | Nc1ncnc2c1ccn2[C@@H]1C[C@H]([C@@H]2OC(=O)c3cc(Cl)ccc32)[C@@H](O)[C@H]1O [Example 3A, (S)-3-((1S,2R,3S,4R)-4-(4-amino-7H-pyrrolo[2,3-d]pyrimidin-7-yl)-2,3-dihydroxycyclopentyl)-6-chloroisobenzofuran-1(3H)-one] | 21 | – | – | 1620
